From patent US20250161351A1 (priority 2022, published 2025) come the findings set out here.

What all share (test): cells
The test system of one experiment is Nomo-1 cells. Particulars: Homo sapiens, NOMO-1, 72 h, read-out: Relative cell viability compared to control.
Experiment [1] deals with patient-derived primary AML cells HD-23. Particulars: 72 h, read-out: Relative cell viability compared to control.
Another experiment has as its system HL-60 cells. Particulars: Homo sapiens, HL-60, 72 h, read-out: Relative cell viability compared to control.

For orientation: viability means the share of living cells, or the viability signal relative to a control. Regarding `Nc1ncn([C@@H]2O[C@H](CO)[C@@H](O)[C@H]2O)c(=O)n1` [Azacytidine, 4-Amino-1-β-D-ribofuranosyl-1,3,5-(1H)triazin-2-one], in the experiment on Nomo-1 cells, the viability at 1.5 µM was found to be 67.1%.

Regarding `O=C(Cc1cccc(OC(F)(F)F)c1)Nc1ccc(CCCCc2nnc(NC(=O)Cc3ccccn3)s2)nn1` [CB-839], the viability at 1 µM was found to be 84.6% in experiment [1], 98.1% with Nomo-1 cells and 92.1% in the experiment with HL-60 cells. Moreover, the results for the viability at 0.5 µM in the experiment on Nomo-1 cells and in the experiment on HL-60 cells were 96.1% and 95.1%, respectively.

With `C#CCC(N)C(=O)O` (stereo not shown) [PPG, 2-aminopent-4-ynoic acid], the viability at 2000 µM in experiment [1] came to 92.9%. Moreover, in the experiment with Nomo-1 cells, the viability at 250 µM amounted to 97.9%, the viability at 500 µM stood at 96.6% and the viability at 1000 µM amounted to 95.2%. In addition, in the experiment with HL-60 cells, the viability at 250 µM came out at 98.7%, the viability at 500 µM was determined as 98.9% and the viability at 1000 µM was determined as 97.9%.

For the compound `CC1(C)CCC(CN2CCN(c3ccc(C(=O)NS(=O)(=O)c4ccc(NCC5CCOCC5)c([N+](=O)[O-])c4)c(Oc4cnc5[nH]ccc5c4)c3)CC2)=C(c2ccc(Cl)cc2)C1` [Venetoclax, 4-[4-[[2-(4-Chlorophenyl)-4,4-dimethyl-1-cyclohexen-1-yl]methyl]-1-piperazinyl]-N-[[3-nitro-4-[[(tetrahydro-2H-pyran-4-yl)methyl]amino]phenyl]sulfonyl]-2-(1H-pyrrolo[2,3-b]pyridin-5-yloxy)benzamide], in the experiment on Nomo-1 cells, the viability at 0.015625 µM is 93.8%, the viability at 0.03125 µM is 90.4%, the viability at 0.0625 µM came out at 85.4% and the viability at 0.125 µM stood at 79.8%. Moreover, in the experiment with Nomo-1 cells, the viability at 0.5 µM came out at 63.6% and the viability at 1 µM was determined as 55.3%.
